Measured values published in US5663197A, “2-(1-hydroxyethyl)-5-hydroxynaphtho[2,3-b]furan-4,9-dione and antitumor agents comprising this compound” (priority 1992, dated 1997).
In brackets after ≈: the same amount, converted by molar mass.

What was measured:
[1] = test system: Human ovarian carcinoma TYK-nu cells; experiment: In vitro antitumor test (trypan blue exclusion viable cell count), TYK-nu; assay type: cell-based
Protocol: (§1) An appropriate amount of NFD was dissolved in DMSO to give a 1.0 mg/ml stock solution, which was diluted as necessary before use.
(§2) The following cells in the late logarithmic phase were harvested after treatment with trypsin (containing 0.25% trypsin and 0.02% EDTA; 37° C., 3 min) and used in the test: human lung adenocarcinoma cell lines A-549, VMRC-LCD and SK-LU-1, human lung squamous cell carcinoma Calu-1 cells, human colon adenocarcinoma WiDr cells, human prostate cancer LNCaP cells, human vaginal squamous cell carcinoma A-431 cells, human cervical carcinoma HeLa cells, human cholangiocarcinoma HuCC-T1 cells, mouse skin cancer melanoma B16 (M4) cells, human pancreatic carcinoma ASPC-1 cells, human neuroblastoma IMR-132 cells, human lung small cell carcinoma SCCH-194 cells, human uninary bladder carcinoma T24 cells, human renal cell carcinoma […] cells, human gastric cancer NUGC-2 cells, human thyroid carcinoma 8305C cells, human hepatoma HUH-7 cells, human ovarian carcinoma TYK-nu cells and human chorio carcinoma BeWo cells. Suspension cultures of human breast cancer MRK-nu-1 cells, human malignant B-cell lymphoma cells and human chronic myelogenous leukemia K562 cells were used to harvest the cells to be used in the test. […] These cells were plated onto a 96-well microplate at a density of 5-10×10^3 cells/cm^2 using DMEM or RPMI-1640 medium containing 10% fetal bovine serum and cultured for 24 hours in a conventional manner, after which a pre-determined amount of NFD dissolved in DMSO was added to each well. Cultivation was continued, and the number of viable cells was counted after 24, 48 and 72 hours. […]
Growth inhibitory action and lethal activity of NFD on various types of malignant tumor cells and normal human cells listed above were evaluated by counting the number of viable cells in each well of the 96-well microplate. […]

human lung cancer cells = experiment: In vitro antitumor test, human lung cancer cells (FIGS. 1-4); assay type: cell-based
Protocol: as §1
as §2, with “cells.” for “cells. Suspension cultures of human breast cancer MRK-nu-1 cells, human malignant B-cell lymphoma cells and human chronic myelogenous leukemia K562 cells were used to harvest the cells to be used in the test.”, “well.” for “well. Cultivation was continued, and the number of viable cells was counted after 24, 48 and 72 hours.”

[2] = test system: Human lung squamous cell carcinoma Calu-1 cells; experiment: In vitro antitumor test (trypan blue exclusion viable cell count), Calu-1; assay type: cell-based; details: 72 h, three days exposure, read-out: LD50 (IC50), 50% growth-inhibitory dose
Protocol: as §1
as §2, with “cells.” for “cells. Suspension cultures of human breast cancer MRK-nu-1 cells, human malignant B-cell lymphoma cells and human chronic myelogenous leukemia K562 cells were used to harvest the cells to be used in the test.”, “well.” for “well. Cultivation was continued, and the number of viable cells was counted after 24, 48 and 72 hours.”

[3] = test system: Mouse melanoma B16 (M4) cells; experiment: In vitro antitumor test (trypan blue exclusion viable cell count), B16 (M4); assay type: cell-based
Protocol: as §1
as §2, with “cells.” for “cells. Suspension cultures of human breast cancer MRK-nu-1 cells, human malignant B-cell lymphoma cells and human chronic myelogenous leukemia K562 cells were used to harvest the cells to be used in the test.”, “well.” for “well. Cultivation was continued, and the number of viable cells was counted after 24, 48 and 72 hours.”

[4] = test system: Human lung adenocarcinoma A-549 cells; experiment: In vitro antitumor test (trypan blue exclusion viable cell count), A-549; assay type: cell-based; details: A549, 72 h, three days exposure, read-out: LD50 (IC50), 50% growth-inhibitory dose
Protocol: as §1
as §2, with “cells.” for “cells. Suspension cultures of human breast cancer MRK-nu-1 cells, human malignant B-cell lymphoma cells and human chronic myelogenous leukemia K562 cells were used to harvest the cells to be used in the test.”, “well.” for “well. Cultivation was continued, and the number of viable cells was counted after 24, 48 and 72 hours.”

[5] = test system: Human cervical carcinoma HeLa cells; experiment: In vitro antitumor test (trypan blue exclusion viable cell count), HeLa; assay type: cell-based
Protocol: as §1
as §2, with “cells.” for “cells. Suspension cultures of human breast cancer MRK-nu-1 cells, human malignant B-cell lymphoma cells and human chronic myelogenous leukemia K562 cells were used to harvest the cells to be used in the test.”, “well.” for “well. Cultivation was continued, and the number of viable cells was counted after 24, 48 and 72 hours.”

[6] = test system: Human lung adenocarcinoma SK-LU-1 cells; experiment: In vitro antitumor test (trypan blue exclusion viable cell count), SK-LU-1; assay type: cell-based; details: 72 h, three days exposure, read-out: LD50 (IC50), 50% growth-inhibitory dose
Protocol: as §1
as §2, with “cells.” for “cells. Suspension cultures of human breast cancer MRK-nu-1 cells, human malignant B-cell lymphoma cells and human chronic myelogenous leukemia K562 cells were used to harvest the cells to be used in the test.”, “well.” for “well. Cultivation was continued, and the number of viable cells was counted after 24, 48 and 72 hours.”

[7] = test system: Human cholangiocarcinoma HuCC-T1 cells; experiment: In vitro antitumor test (trypan blue exclusion viable cell count), HuCC-T1; assay type: cell-based
Protocol: as §1
as §2, with “cells.” for “cells. Suspension cultures of human breast cancer MRK-nu-1 cells, human malignant B-cell lymphoma cells and human chronic myelogenous leukemia K562 cells were used to harvest the cells to be used in the test.”, “well.” for “well. Cultivation was continued, and the number of viable cells was counted after 24, 48 and 72 hours.”

[8] = test system: carcinogenic promotion (skin papillomas in mice); experiment: Inhibition of two-step skin carcinogenesis in mice skin; assay type: in vivo, mouse (female ICR); details: DMBA initiator, TPA promoter, 20 weeks; FIG. 28 (NFD 85 nmol), FIG. 29 (lapacoal)
Protocol: Female ICR mice were used as test animals. Fifteen mice were housed in a cage and kept on a commercial pellet diet and drinking water ad libitum until the end of the experiment. The mice were purchased at their age of six-week-old. Dorsal hair of mice was shaved, and next day, 390 nmol of 7,12-dimethylbenz(a)anthracene (DMBA) in 0.1 ml acetone was applied, as an initiator, on the shaved back. One week later, 1.7 nmol of 12-O-tetradecanoylphorbol-13-acetate (TPA) in 0.1 ml acetone was applied, as a promoter, to the same place twice a week. This procedure was repeated for 20 weeks.
Mice were observed once a week for the number of papillomas larger than 1 mm, and the experimental results were given as the percentage of papilloma-bearing mice in each group and the number of papillomas per mouse.

Compound: CC(O)c1cc2c(o1)C(=O)c1cccc(O)c1C2=O (stereo not drawn) [NFD, 2-(1-hydroxyethyl)-5-hydroxynaphtho[2,3-b]furan-4,9-dione]
- concentration causing necrosis in almost all tumor cells ([1]; FIG. 22): ≥ 40 ng/mL
- IC50 ([1]; Homo sapiens, 72 h, TYK-nu, three days exposure, read-out: LD50 (IC50), 50% growth-inhibitory dose): 0.017 µg/mL (≈ 0.0658 µM)
- IC (almost complete) ([1]; Homo sapiens, FIG. 22, read-out: concentration inhibiting growth almost completely): 0.02 µg/mL
- concentration causing necrosis in almost all tumor cells (human lung cancer cells): 33.5 to 55.4 ng/mL
- IC (almost complete) (human lung cancer cells; Homo sapiens, read-out: concentration inhibiting growth almost completely): 0.0112 to 0.0168 µg/mL
- IC50 [2]: 0.017 µg/mL (≈ 0.0658 µM)
- IC50 ([3]; 72 h, B16 (M4), three days exposure, read-out: LD50 (IC50), 50% growth-inhibitory dose): 0.0067 µg/mL (≈ 0.0259 µM)
- IC (almost complete) ([3]; FIG. 10, read-out: concentration inhibiting growth almost completely): 0.0112 µg/mL
- IC50 [4]: 0.0095 µg/mL (≈ 0.0368 µM)
- IC50 ([5]; 72 h, three days exposure, read-out: LD50 (IC50), 50% growth-inhibitory dose): 0.018 µg/mL (≈ 0.0697 µM)
- IC (almost complete) ([5]; FIG. 8, read-out: concentration inhibiting growth almost completely): 0.0224 µg/mL
- IC50 [6]: 0.017 µg/mL (≈ 0.0658 µM)
- IC50 ([7]; HuCCT-1, 72 h, HuCC-T1, three days exposure, read-out: LD50 (IC50), 50% growth-inhibitory dose): 0.02 µg/mL (≈ 0.0775 µM)
- IC (almost complete) ([7]; HuCCT-1, FIG. 9, read-out: concentration inhibiting growth almost completely): 0.0224 µg/mL
- inhibitory effect on carcinogenic promotion in skin [8]: inhibitory effect
